Assay results as given in patent US8987193B2, “Nisin derivatives and the use thereof” (University College Cork—National University of Ireland, Cork, priority 2008, dated 2015).
“Also recorded” adds a separate entry of the source. Ends that are not written are not given here.

Legend:
[1] = test system: Strep. agalactiae ATCC13813; experiment: Deferred antagonism assay; type: cell-based; settings: producing strain, diameter of zone minus 5 mm, average of duplicates
Procedure: (§1) Deferred antagonism assays were performed by replicating strains on GM17 or GM17 x-gal agar plates and allowing them to grow overnight before overlaying with either GM17/BHI/TS/MH agar (0.75% w/v agar) seeded with the appropriate indicator strain. Zone size was calculated as the diameter of the zone of clearing minus the diameter of bacterial growth (5 mm) For higher throughput screening of N20PXX, XM21VX, XXK22T and XXX banks deferred antagonism assays were performed by replicating strains using a 96 pin replicator (Boekel) or spotting 5 μl of a fresh overnight culture on GM17 agar plates and allowing them to grow overnight. […] Additional sets of indicators were employed to further assess/reassess the bioactivity of a number of strains. […] For well-diffusion assays molten agar was cooled to 48° C. and seeded with the appropriate indicator strain. The inoculated medium was rapidly transferred into sterile Petri plates in 50 ml volumes, allowed to solidify and dried. Wells (4.6 mm in diameter) were then made in the seeded plates. Purified nisin and mutant nisins were resuspended in 0.005% acetic acid, serially diluted, 50 μl volumes were dispensed into the aforementioned wells and the plates incubated at 37° C. overnight. Bioactivity was expressed as arbitrary units/ml (AU/ml) and calculated as the reciprocal of the highest dilution that gave a definite zone multiplied by the conversion factor (i.e. 20 when 50 μl was used) (Ryan et al., 1996).
(§2) As a consequence of the enhanced activities of K22T and K22S, a more in-depth investigation of this region was carried out. Saturation mutagenesis was undertaken to create a bank of nisin A hinge derivatives containing the vast majority of possible amino acid substitutions for each position. Although pPTPL was used successfully for random mutagenesis, its relatively large size of approx 10.5 kb was considered unsuitable for the complete plasmid PCR amplification approach utilized for saturation mutagenesis. A smaller (approx 6 kb) E. coli-L. lactis shuttle vector pCI372 was considered to be potentially more useful. Its suitability with respect to the in trans expression of nisA was confirmed by the ability of pDFO5 to restore the nisin positive phenotype. Saturation mutagenesis was performed on each codon using pDF05 and oligonucleotides (Table 5) that replace the specific codon with a NNK triplet, potentially encoding all 20 standard amino acids. Following complete plasmid amplification and introduction into the intermediate Top10 host, sequence analysis of a pooled bank of pDF05 derivatives confirmed randomization. Introduction of these variants into L. lactis NZ9800 allowed the expression of mutant nisin A peptides for further analysis. […] 46 residue conversions were isolated. All strains, regardless of bioactivity, were assessed with a view to comprehensively assessing the consequences of each individual hinge alteration.
(§3) Values are an average of duplicate experiments and represent zone size (diameter of zone minus diameter of bacterial growth (i.e. 5 mm) relative to that of the NZ9800 pCI372nisA control. X=Mutants not identified.

Staph. aureus DPC5245 = experiment: Deferred antagonism assay; type: cell-based; settings: producing strain; diameter of zone minus 5 mm; average of duplicates; St. aureus DPC5245
Procedure: as §1, §2, §3

[2] = test system: Staph. aureus ST528 (MRSA); experiment: Deferred antagonism assay; type: cell-based; settings: producing strain, diameter of zone minus diameter of bacterial growth (5 mm), average of duplicates
Procedure: as §1, §2, §3

indicator strains = experiment: Deferred antagonism assays, various indicator strains (summary); type: cell-based; settings: for Target strain against which the hinge mutant was selected for enhanced bioactivity: XX and XXX banks, L. lactis HP*: enhanced or equal; for Target strain against which the hinge mutant was selected for enhanced bioactivity / Strain(s) against which the derivative (producing strain) displays enhanced bioactivity: relative to nisin A-producing control; for Strain(s) against which the derivative (producing strain) displays enhanced bioactivity: value = strains listed
Procedure, shortened: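 Producer strains were replicated on GM17 or GM17 x-gal agar, grown overnight, then overlaid with GM17, BHI, TS or MH soft agar (0.75% w/v) seeded with the indicator strain. Zone size was taken as the clearing diameter minus the diameter of bacterial growth (5 mm).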

L. plantarum CBC6 = experiment: Deferred antagonism assay; type: cell-based, Lactobacillus plantarum; set-up: key: + = Enhanced bioactivity relative to control; − = Bioactivity equal to or less than control; NA = no activity evident; settings: XX and XXX hinge mutant producers
Procedure: as §1, §2

L. lactis CBC8 = experiment: Deferred antagonism assay; type: cell-based; set-up: key: + = Enhanced bioactivity relative to control; − = Bioactivity equal to or less than control; NA = no activity evident; settings: XX and XXX hinge mutant producers
Procedure: as §1, §2

S. aureus CBC4 = experiment: Deferred antagonism assay; type: cell-based; set-up: key: + = Enhanced bioactivity relative to control; − = Bioactivity equal to or less than control; NA = no activity evident; settings: XX and XXX hinge mutant producers
Procedure: as §1, §2

L. lactis CBC7 = experiment: Deferred antagonism assay; type: cell-based; set-up: key: + = Enhanced bioactivity relative to control; − = Bioactivity equal to or less than control; NA = no activity evident; settings: XX and XXX hinge mutant producers
Procedure: as §1, §2

L. monocytogenes CBC2 = experiment: Deferred antagonism assay; type: cell-based, Listeria monocytogenes; set-up: key: + = Enhanced bioactivity relative to control; − = Bioactivity equal to or less than control; NA = no activity evident; settings: L. mono CBC2; XX and XXX hinge mutant producers
Procedure: as §1, §2

L. monocytogenes CBC3 = experiment: Deferred antagonism assay; type: cell-based, Listeria monocytogenes; set-up: key: + = Enhanced bioactivity relative to control; − = Bioactivity equal to or less than control; NA = no activity evident; settings: L. mono CBC3; XX and XXX hinge mutant producers
Procedure: as §1, §2

L. monocytogenes CBC1 = experiment: Deferred antagonism assay; type: cell-based, Listeria monocytogenes; set-up: key: + = Enhanced bioactivity relative to control; − = Bioactivity equal to or less than control; NA = no activity evident; settings: L. mono CBC1; XX and XXX hinge mutant producers
Procedure: as §1, §2

Substance | zone size relative to that of the NZ9800 pCI372nisA control [1] [%] | zone size relative to that of the NZ9800 pCI372nisA control (Staph. aureus DPC5245) [%] | zone size relative to that of the NZ9800 pCI372nisA control [2] [%] | bioactivity of the producing strain, in words (indicator strains; in general / against the strains tested) | Target strain against which the hinge mutant was selected for enhanced bioactivity (indicator strains) | Strain(s) against which the derivative (producing strain) displays enhanced bioactivity (indicator strains) | bioactivity relative to a nisin A-producing control (L. plantarum CBC6) | bioactivity relative to a nisin A-producing control (L. lactis CBC8) | bioactivity relative to a nisin A-producing control (S. aureus CBC4) | bioactivity relative to a nisin A-producing control (L. lactis CBC7) | bioactivity relative to a nisin A-producing control (L. monocytogenes CBC2) | bioactivity relative to a nisin A-producing control (L. monocytogenes CBC3) | bioactivity relative to a nisin A-producing control (L. monocytogenes CBC1) | number of targets with enhanced activity (indicator strains; of the 8 additional targets tested)
K22E: nisin A derivative, hinge substitution K22E; no detectable production (ITSISLCTPGCKTGALMGCNMETATCHCSIHVSK; cysteine pairing not given here; also: lantibiotic nisin-A; UniProt P13068 24-57, looked up, variant K22E) | 0 | 0 | 0 |  |  |  |  |  |  |  |  |  |  | 
K22R: nisin A derivative, hinge substitution K22R (ITSISLCTPGCKTGALMGCNMRTATCHCSIHVSK; cysteine pairing not given here; also: lantibiotic nisin-A; UniProt P13068 24-57, looked up, variant K22R) | 56 | 45 | 42.5 | greatly reduced bioactivities |  |  |  |  |  |  |  |  |  | 
M21T: nisin A derivative, hinge substitution M21T (ITSISLCTPGCKTGALMGCNTKTATCHCSIHVSK; cysteine pairing not given here; also: lantibiotic nisin-A; UniProt P13068 24-57, looked up, variant M21T) | 110 | 112 | 110 |  |  |  |  |  |  |  |  |  |  | 
N20Y: nisin A derivative, hinge substitution N20Y (ITSISLCTPGCKTGALMGCYMKTATCHCSIHVSK; cysteine pairing not given here; also: lantibiotic nisin-A; UniProt P13068 24-57, looked up, variant N20Y) | 30.5 | 55 | 33.5 |  |  |  |  |  |  |  |  |  |  | 
NisinA QLT (ITSISLCTPGCKTGALMGCQLTTATCHCSIHVSK; not fully specified (bridges); also: lantibiotic nisin-A: lanthionine rings and dehydrated residues, places not given here; UniProt P13068 24-57, looked up, variant N20Q M21L K22T) [nisin A hinge variant QLT (i.e. N20Q, M21L, K22T)] |  |  |  |  | Strep. agalactiae ATCC 13813 | S. agalactiae ATCC13813 | − | − | − | − | − | − | − | 
NisinA SVA (ITSISLCTPGCKTGALMGCSVATATCHCSIHVSK; not fully specified (bridges); also: lantibiotic nisin-A: lanthionine rings and dehydrated residues, places not given here; UniProt P13068 24-57, looked up, variant N20S M21V K22A) [nisin A hinge variant SVA (i.e. N20S, M21V, K22A)] |  |  |  |  | C. sporogenes UCC1 | C. sporogenes UCC1, L. monocytogenes CBC2 , CBC3, S. aureus CBC4 and L. lactis CBC7 , CBC8; also recorded: C. sporogenes UCC1, L. mono CBC2, CBC3, S. aureus | − | + | + | + | + | + | − | 5
